Source: US8877927B2 (Grunenthal GmbH, priority 2006, dated 2014)

Tests used:
[1] = target: T1, Human recombinant cathepsin K (Homo sapiens, UniProt P43235); experiment: In vitro cathepsin K Ki inhibition measurement; assay type: biochemical; details: for Ki: recombinant human cathepsin K, read-out: In vitro Ki (nM) vs Cath K
T1 construct: purchased B. Turk, Josef, Stefan Institute, Ljubljana, Slovenia
T1 sequence (P43235 115-329): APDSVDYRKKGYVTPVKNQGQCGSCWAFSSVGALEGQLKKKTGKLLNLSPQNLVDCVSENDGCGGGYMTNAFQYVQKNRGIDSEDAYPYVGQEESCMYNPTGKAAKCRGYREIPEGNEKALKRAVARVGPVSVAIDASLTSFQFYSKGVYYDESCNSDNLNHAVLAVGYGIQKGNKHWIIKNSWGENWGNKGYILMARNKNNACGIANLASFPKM
Method: Stock solutions of substrate or inhibitor were made up to 10 mM in 100% dimethylsulfoxide (DMSO) (Rathbums, Glasgow, U.K.) and diluted as appropriately required. In all cases the DMSO concentration in the assays was maintained at less than 1% (vol./vol.). The equilibrium inhibition constants (Ki^ss) for each compound were measured under steady-state conditions monitoring enzyme activity as a function of inhibitor concentration. The values were calculated on the assumption of pure competitive behaviour (Cornish-Bowden, A. Fundamentals of enzyme kinetics Portland Press; 1995, 93-128.). Human recombinant cathepsin K (0.25 nM final; B. Turk, Josef, Stefan Institute, Ljubljana, Slovenia), was routinely assayed in 100 mM sodium acetate; pH 5.5 containing 1 mM EDTA, 10 mM L-cysteine and 1.8 μM Z-Leu-Arg-AMC ([S]═KM).
The apparent inhibition constant (Ki) for each compound was determined on the basis that inhibition was reversible and occurred by a pure-competitive mechanism. The Ki values were calculated, from the dependence of enzyme activity as a function of inhibitor concentration, by direct regression analysis (Prism v 3.02) using Equation 2 (Cornish-Bowden, A., 1995.).
In situations where the apparent dissociation constant (Ki^app) approached the enzyme concentrations, the Ki^app values were calculated using a quadratic solution in the form described by Equation 3 (Morrison, J. F. Trends Biochem. Sci., 7, 102-105, 1982; Morrison, J. F. Biochim. Biophys. Acta, 185, 269-286, 1969; Stone, S. R. and Hofsteenge, J. Biochemistry, 25, 4622-4628, 1986).
In Equation 3 ‘vi’ is the observed residual activity, ‘F’ is the difference between the maximum activity (i.e. in the absence of inhibitor) and minimum enzyme activity, ‘Eo’ is the total enzyme concentration, ‘Ki^app’ is the apparent dissociation constant and ‘Io’ is the inhibitor concentration. Curves were fitted by non-linear regression analysis (Prism) using a fixed value for the enzyme concentration. Equation 4 was used to account for the substrate kinetics, where ‘Ki’ is the inhibition constant, ‘[So]’ is the initial substrate concentration and ‘KM^app’ is the apparent macroscopic binding (Michaelis) constant for the substrate (Morrison, 1982).

[2] = Liver microsomal incubations (HLM); assay type: in vitro ADME; details: human liver microsomes 0.5 mg/mL, 25 μM, NADPH, percent remaining at 1 hour
Method: (§1) Human and rat liver microsomes were purchased from BD Gentest (Woburn, Mass., USA) and β-nicotinamide adenine dinucleotide 2′-phosphate reduced tetrasodium salt (NADPH) was purchased from Sigma-Aldrich (Poole, Dorset, UK). All liver microsome incubations were carried out in 50 mM potassium phosphate buffer at pH 7.4, with a final microsomal protein concentration of 0.5 mg/mL. […] In brief, compounds were added to the incubation buffer along with the liver microsomes and incubated at 37° C. for 10 minutes. The reaction was then initiated by the addition of NADPH, previously dissolved in incubation buffer, to give a final concentration of 1 mM and re-incubated at 37° C. Aliquots were removed at 2 and 60 minutes and quenched with an equal volume of cold acetonitrile. After mixing vigorously, the precipitated protein matter was removed by filtration (Multiscreen Solvinert filter plates, Millipore, Bedford, Mass., USA) and the filtrate analysed by reverse phase HPLC with mass spectrometric detection, using single ion monitoring of the [M+H]^+ species. Metabolic turnover was determined by comparison of peak areas from the ion chromatograms of the parent compound at 2 and 60 minutes and expressed as percent remaining at 1 hour.

[3] = Plasma incubations (rat plasma stability); assay type: in vitro ADME; details: 25 μM, 37° C., percent remaining at 1 hour
Method: (§2) Human and rat plasma were purchased from Innovative Research Inc. (Southfield. Mich., USA). […] Aliquots were removed at 2 and 60 minutes and quenched with an equal volume of cold acetonitrile. After mixing vigorously, the precipitated protein matter was removed by filtration (Multiscreen Solvinert filter plates, Millipore, Bedford, Mass., USA) and the filtrate analysed by reverse phase HPLC with mass spectrometric detection, using single ion monitoring of the [M+H]^+ species. Metabolic turnover was determined by comparison of peak areas from the ion chromatograms of the parent compound at 2 and 60 minutes and expressed as percent remaining at 1 hour.

[4] = Liver microsomal incubations (RLM); assay type: in vitro ADME; details: rat liver microsomes 0.5 mg/mL, 25 μM, NADPH, percent remaining at 1 hour
Method: as §1

[5] = Plasma incubations (human plasma stability); assay type: in vitro ADME; details: 25 μM, 37° C., percent remaining at 1 hour
Method: as §2

[6] = Rat pharmacokinetics (oral bioavailability, clearance); assay type: in vivo; details: for reduction in clearance: compared to prior art compound 42; for clearance / bioavailability: in vivo; for bioavailability: oral, read-out: Rat Oral Bioavailability (% F)
[7] = compared to prior art compound 11
[8] = compared to prior art compound 42

SMILES | Ki [1] | HLM % rem. @ 1 hr [2] | Rat Plasma Stability % rem. @ 1 h [3] | RLM % rem. @ 1 hr [4] | Human Plasma Stability % rem. @ 1 h [5] | reduction in clearance [6] | clearance [6] | bioavailability [6] | improvement in in vitro potency against recombinant human cathepsin K [1, 8] | also measured
CN1CCN(c2nc(-c3ccc(C(=O)N[C@H](C(=O)N4C[C@@H](Cl)[C@H]5OCC(=O)[C@H]54)C4CCCC4)cc3)cs2)CC1 [Example 8] | 0.3 nM | 54.1% | 85.1% | 7.7% | 96% | – | – | – | – | –
CN1CCN(c2nc(-c3ccc(C(=O)N[C@H](C(=O)N4CC[C@H]5OCC(=O)[C@H]54)C4CCCC4)cc3)cs2)CC1 [prior art compound 13] | – | 79.4% | 93% | 4.3% | 82.5% | – | – | – | – | improvement in in vitro potency against recombinant human cathepsin K [1, 7]: only minor improvement
CC(C)C[C@H](NC(=O)c1ccc(-c2csc(N3CCN(C)CC3)n2)cc1)C(=O)N1C[C@@H](F)[C@H]2OCC(=O)[C@H]21 [prior art compound 8.19] | 1.5 nM | 66.7% | 90.2% | 4.4% | 70.2% | – | – | – | – | improvement in in vitro potency against recombinant human cathepsin K [1, 7]: only minor improvement
CN1CCN(c2ccc(C(=O)N[C@H](C(=O)N3CC(F)[C@H]4OCC(=O)[C@H]43)C3CCCCC3)cc2)CC1 (stereo in doubt) [Example 2, N—((S)-1-cyclohexyl-2-((3aS,6S,6aS)-6-fluoro-3-oxodihydro-2H-furo[3,2-b]pyrrol-4(5H,6H,6aH)-yl)-2-oxoethyl)-4-(4-methylpiperazin-1-yl)benzamide] | 14.9 nM | 98.2% | 100% | 73.3% | 93.1% | 68% | 25 mL/min/kg | 80% | – | –
CC(C)C[C@H](NC(=O)c1ccc(N2CCN(C)CC2)cc1)C(=O)N1C[C@@H](F)[C@H]2OCC(=O)[C@H]21 [prior art compound 10] | 3.6 nM | 96.8% | 94.2% | 93.6% | 100% | no effect | 81 mL/min/kg | 40% | 2.4 fold | –
CC(C)C[C@H](NC(=O)c1ccc(N2CCN(C)CC2)cc1)C(=O)N1CC[C@H]2OCC(=O)[C@H]21 [prior art compound 42] | – | 95% | 84.2% | 76.6% | 95% | – | 79 mL/min/kg | 31.5% | – | –
CC(C)C[C@H](NC(=O)c1ccc(N2CCN(C)CC2)cc1)C(=O)N1C[C@@H](Cl)[C@H]2OCC(=O)[C@H]21 [prior art compound 14] | 1.8 nM | – | – | – | – | – | – | – | – | HLM % rem. @ 1 hr ([2]; listed as drawing 58): 84.8%; Rat Plasma Stability % rem. @ 1 h ([3]; listed as drawing 58): 92.8%; RLM % rem. @ 1 hr ([4]; listed as drawing 58): 85.5%; Human Plasma Stability % rem. @ 1 h ([5]; listed as drawing 58): 85.5%
CN1CCN(c2ccc(C(=O)N[C@H](C(=O)N3C[C@H](F)[C@H]4OCC(=O)[C@H]43)C3CCCC3)cc2)CC1 [Example 1, N—((S)-1-cyclopentyl-2-((3aS,6S,6aS)-6-fluoro-3-oxodihydro-2H-furo[3,2-b]pyrrol-4(5H,6H,6aH)-yl)-2-oxoethyl)-4-(4-methylpiperazin-1-yl)benzamide] | 1.7 nM | 100% | 95.9% | 82% | 96.4% | 71% | 23 mL/min/kg | 88% | 5 fold | –
CC(C)C[C@H](NC(=O)c1ccc(N2CCN(C)CC2)cc1)C(=O)N1C[C@@H](Cl)[C@H]2OCC(=O)[C@H]21 [prior art compound 15] | 3.7 nM | – | – | – | – | – | – | – | – | HLM % rem. @ 1 hr ([2]; listed as drawing 59): 80.3%; Rat Plasma Stability % rem. @ 1 h ([3]; listed as drawing 59): 88.9%; RLM % rem. @ 1 hr ([4]; listed as drawing 59): 81.6%; Human Plasma Stability % rem. @ 1 h ([5]; listed as drawing 59): 90.3%
CN1CCN(c2ccc(C(=O)N[C@H](C(=O)N3CC[C@H]4OCC(=O)[C@H]43)C3CCCC3)cc2)CC1 [prior art compound 12] | 1.8 nM | 91.2% | 94.1% | 93.9% | 97.2% | 29% | 56 mL/min/kg | 45% | 5 fold | –
CN1CCN(c2ccc(C(=O)N[C@H](C(=O)N3CC(Cl)[C@H]4OCC(=O)[C@H]43)C3CCCC3)cc2)CC1 (stereo in doubt) [Example 5, N—((S)-2-((3aS,6S,6aS)-6-chloro-3-oxodihydro-2H-furo[3,2-b]pyrrol-4(5H,6H,6aH)-yl)-1-cyclopentyl-2-oxoethyl)-4-(4-methylpiperazin-1-yl)benzamide] | 0.5 nM | 85.6% | 96.6% | 81.3% | 97.4% | – | 107 mL/min/kg | 37% | 17 fold | increase in in vitro potency against recombinant human cathepsin K ([1]; compared to the direct (S)-leucine analogue (14)): 3.5 fold
CN1CCN(c2nc(-c3ccc(C(=O)N[C@H](C(=O)N4C[C@@H](F)[C@H]5OCC(=O)[C@H]54)C4CCCC4)cc3)cs2)CC1 [Example 7] | 0.9 nM | 74% | 88% | 3.5% | 96.3% | – | – | – | – | –
CC(C)C[C@H](NC(=O)c1ccc(-c2csc(N3CCN(C)CC3)n2)cc1)C(=O)N1CC[C@H]2OCC(=O)[C@H]21 [prior art compound 11] | – | 82.6% | 88.6% | 4.8% | 92.6% | – | – | – | – | –
